According to PMC8540617, “Dual Targeting of PTP1B and Aldose Reductase with Marine Drug Phosphoeleganin: A Promising Strategy for Treatment of Type 2 Diabetes” (Marine Drugs, 2021):

Key:
[1] = target: T1, human recombinant PTP1B (1-302) (Homo sapiens, UniProt P18031); assay: PTP1B activity / inhibition assay (p-NPP hydrolysis); assay type: biochemical
T1 construct: The human recombinant PTP1B (1-302 aa) and LMW-PTP (full-length) were expressed as fusion proteins; polyhistidine (N); made in house; host or cells: E. coli BL21(DE3) pLysS
T1 sequence (P18031 1-302): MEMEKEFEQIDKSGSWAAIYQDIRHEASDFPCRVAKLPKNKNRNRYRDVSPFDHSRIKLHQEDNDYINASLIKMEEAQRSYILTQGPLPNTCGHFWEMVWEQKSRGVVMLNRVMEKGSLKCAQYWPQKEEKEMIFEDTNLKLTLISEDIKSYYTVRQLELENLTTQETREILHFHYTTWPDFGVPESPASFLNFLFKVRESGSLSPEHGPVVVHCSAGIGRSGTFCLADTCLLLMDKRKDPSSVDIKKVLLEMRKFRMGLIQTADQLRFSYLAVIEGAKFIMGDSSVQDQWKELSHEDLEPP
Procedure: PTP1B activity was determined as previously described. Briefly, each assay was started by adding an aliquot of human recombinant PTP1B (1-302) in the assay buffer (0.075 M β,β-dimethylglutarate pH 7.0, containing 1 mM EDTA, 0.1 mM DTT, and p-nitrophenylphosphate (p-NPP)). All reactions were performed at 37 °C in a final volume of 1 mL. After the incubation time, the reactions were stopped by adding 2 mL of 0.1 M KOH to the samples. The concentration of the released p-nitrophenol was determined by measuring the absorbance at 400 nm in a 1 cm pathlength cuvette. One unit of enzyme activity is the amount that catalyses the conversion of 1 μmol of substrate/min in the above assay conditions.
(§1) PE was dissolved in DMSO at a final concentration of 10 mM and added to the assay mixture containing 10 mU of purified AR (84 nM on the basis of a 34 KDa molecular weight) or 8 mU purified PTP1B (52 nM on the basis of a 36 KDa molecular weight). The reaction was started by the addition of the substrate. The DMSO concentration in the assays for AR determination was kept constant at 0.7 % (v/v) in order to avoid effects on AR activity. The inhibitory effect of PE was determined by measuring the reaction rates in the presence of a fixed substrate concentration (2.5 mM p-NPP and 0.8 mM L-idose for PTP1B and AR, respectively) and increasing inhibitor concentrations (at least 14-16 different concentrations). The IC50 (the inhibitor concentration able to decrease the enzymatic activity up to 50%) values were determined by nonlinear regression analysis using Prism GraphPad 6.0 (GraphPad Software, San Diego, CA, USA), fitting experimental data to the following equation: Vi/V0 = Max − Min/1 + x/IC50^slope + Min where Vi/V0 represents the relative activity calculated in presence of each inhibitor concentration; “Max” and “Min” represent the maximum and minimum value of the activity, respectively; “x” is the concentration of the inhibitor; and “slope” represents the slope of the curve in the transition zone.
(§2) In order to define the mechanism of action of PE, reaction rates were measured in assay mixtures containing different L-idose concentrations (between 0.8 and 6 mM) in the case of AR, and different p-NPP concentrations (between 0.5 and 25 mM) in the case of PTP1B, in the absence and in the presence of different PE concentrations. Data were analysed by Lineweaver–Burk plots. The apparent dissociation constants Ki’ (for the ESI complex) and Ki (for the EI complex) were determined from secondary plots of 1/^appVmax and ^appKM/^appVmax as a function of the inhibitor concentration, respectively.
Figure S3. Determination of IC50 value for PE. […] The amount of p-NP released was determined using a spectrophotometer, measuring the absorbance of samples at 400 nm, using a 1cm path length cuvette. […]

human recombinant AR [2] = target: T2, human recombinant AR (Homo sapiens, UniProt P15121); assay: AR activity / inhibition assay (NADPH oxidation, L-idose as substrate); assay type: biochemical
T2 construct: made in house; host or cells: E. coli BL21(DE3) pLysS
Procedure: AR activity was determined at 37 °C, as previously described, evaluating the decrease in absorbance at 340 nm linked to NADPH oxidation using a Biochrom Libra S60 spectrophotometer. The standard assay mixture contained 0.25 M sodium phosphate buffer pH 6.8, 0.18 mM NADPH, 2.4 M ammonium sulphate, 0.5 mM EDTA, and 4.7 mM D,L-glyceraldehyde. One unit of enzyme activity is the amount that catalyses the conversion of 1 μmol of substrate/min in the above assay conditions. For AR inhibition studies, L-idose (at the indicated concentrations) was used as substrate in the conditions described above.
as §1, §2

human recombinant AR [3] = target: T2, human recombinant AR; assay: Reversibility of AR inhibition by dialysis; assay type: biochemical
Procedure: (§3) The mixture was then extensively dialysed on Amicon ultrafiltration membrane (cut-off 3 KDa) against 10 mM sodium phosphate buffer, pH 7.0. After dialysis, the enzyme activity was again measured using 0.8 mM L-idose as substrate and compared to that of a mixture treated in the same conditions but in the absence of inhibitor. In order to evaluate the reversibility of the inhibitory action on PTP1B, 8 mU of PTP1B was incubated in the presence of a saturating concentration of PE (3 µM) and then incubated at 37 °C for 1 h. After this time, an aliquot of solution was withdrawn and extensively diluted in the assay buffer containing 2.5 mM of p-NPP. Residual activity of PTP1B was determined by calculating the amount of pNP released by measuring the absorbance of solution at 400 nm.

[4] = target: T1, human recombinant PTP1B (1-302); assay: Reversibility of PTP1B inhibition, dilution assay; assay type: biochemical
Procedure: as §3
Figure S3. Determination of IC50 value for PE. An aliquot of PTP1B (8 mU) was incubated in the presence of increasing PE concentration in the assay buffer containing 2.5 mM pNPP. After 30 minutes, the reactions were stopped by adding 2 mL of 0.1 M KOH solution. The amount of p-NP released was determined using a spectrophotometer, measuring the absorbance of samples at 400 nm, using a 1cm path length cuvette. All tests were carried out in triplicate. Data obtained were normalized respect to control test and fitted using an opportune equation (see Material and method […]
Figure S4. Dilution assay. […]

HepG2 cells = assay: Analysis of the insulin signalling pathway (Western blot of IR and Akt phosphorylation); assay type: cell-based; details: HepG2, PE 25 µM combined with insulin 10 nM, 30 minutes
Procedure: To evaluate whether PE is able to improve the insulin signalling pathway in vitro, we analysed the effect of the compound on HepG2 cell line. For this purpose, we treated HepG2 cells with PE (25 µM final concentration) for 30 minutes in the presence or absence of insulin (10 nM). After treatment, cells were lysed and cellular extracts were analysed to evaluate the phosphorylation status of insulin receptor (IR) and Akt, a kinase downstream IR (Figure 7).
Figure 7 Effect of PE on the insulin signalling pathway. Panel A: Western blot image; Panel B: quantitation of Western blot carried out using Kodak MI software. Data shown were normalized with respect to the control sample. All tests were carried out in triplicate. […]
In order to evaluate the effect of PE on the insulin signalling pathway, HepG2 cells were seeded in 35-mm culture dishes and, after 24 hours, were incubated for 30 minutes with starvation medium (DMEM supplemented with 2 mM glutamine, 100 U/mL penicillin, and 100 μg/mL streptomycin) containing 25 μM of PE and/or 10 nM insulin (Humalog, lispro insulin). […] Cellular extracts were boiled for 5 minutes, and then an aliquot (20 µg of protein) was analysed by SDS-PAGE and Western blot to evaluate both total and phosphorylated expression levels of Akt and IR. β-actin was used as a reference protein to normalise protein loading.

- IC50 ([1]; 2.5 mM p-NPP, pH 7.0, 37 °C, 8 mU PTP1B): 1.3 ± 0.04 µM
- Type of inhibition of PTP1B ([1]; Lineweaver–Burk analysis): pure non-competitive inhibitor
- K'i (ESI complex) for PTP1B ([1]; secondary plot of 1/appVmax vs PE concentration, p-NPP 0.5-25 mM): 0.7 ± 0.1 µM
- Ki ([1]; secondary plot of appKM/appVmax vs PE concentration, p-NPP 0.5-25 mM, read-out: Ki (EI complex) for PTP1B): 0.7 ± 0.1 µM
- IC50 (human recombinant AR [2]; 0.8 mM L-idose, pH 6.8, 37 °C, 10 mU AR): 28.7 ± 1.1 µM
- Type of inhibition of AR (human recombinant AR [2]; Lineweaver–Burk analysis): mixed inhibitor
- K'i (ESI complex) for AR (human recombinant AR [2]; secondary plot of 1/appVmax vs PE concentration, L-idose 0.8-6 mM): 36 ± 1 µM
- Ki (human recombinant AR [2]; secondary plot of appKM/appVmax vs PE concentration, L-idose 0.8-6 mM, read-out: Ki (EI complex) for AR): 47 ± 1 µM
- Reversibility of AR inhibition (human recombinant AR [3]): reversible inhibitor
- AR enzyme activity recovered after removal of inhibitor by extensive dialysis (human recombinant AR [3]; 10 mU AR incubated 90 min at 0 °C with PE 3 mM, then dialysed, 0.8 mM L-idose): 100%
- Reversibility of PTP1B inhibition [4]: reversible inhibitor
- PTP1B activity recovered after dilution ([4]; incubation with saturating PE (3 µM) at 37 °C, then dilution in buffer with 2.5 mM p-NPP): almost completely
Compound: CCCCCCCCCCCCCCC(OP(=O)(O)O)C(O)CCC(O)C(O)CCC(O)CCCCCCC(=O)NCC(=O)O (centres unmarked) [PE, phosphoeleganin]
- Akt phosphorylation level (HepG2 cells): significant increase
- IR phosphorylation level (HepG2 cells): significant increase
